These results are taken from publication PMC7772889, “Integrating biokinetics and in vitro studies to evaluate developmental neurotoxicity induced by chlorpyrifos in human iPSC-derived neural stem cells undergoing differentiation towards neuronal and glial cells” (Reproductive Toxicology (Elmsford, N.y.), 2020).

Some results are limits rather than exact numbers.

Series [1] can be described thus: Non-specific binding to the matrix (Matrigel, without cells). The note with it: no cells. Format: in vitro ADME. Here is the method: Due to the presence of Matrigel (Reduced Growth Factors), pre-coated well plates were treated in parallel, with the same experimental conditions of the main experiment, but in the absence of cells. In order to determine if and how CPF was sequestered by proteins in Matrigel, the content of the pre-coated wells was transferred into amber glass vials with screw caps and stored at −80 °C until HPLC analysis. For all these analyses, 4 biological replicates were carried out.

For another series, the system named is BDNF protein. Briefly: BDNF protein levels by immunocytochemistry and HCI. Format: cell-based, human. The note with it: 14 days of CPF treatment, dose-dependent, vs solvent control. Here is the method: After 14 days of treatment with CPF at the nominal concentrations of 18.45, 21.21, 24.39, 28.05, 32.26, and 37.10 μM (37.10 μM equal to IC20), obtained considering a 1-to-1.15 dilution factor, cells were fixed with 4 % formaldehyde for 10 min and washed three times in PBS 1 × . After 15 min permeabilization with PBS 1X containing 0.1 % Triton-X-100 and 3,5 % bovine serum albumin (BSA), cells were further incubated with 3,5 % BSA and 1X PBS (blocking solution) for 15 min, to prevent nonspecific binding of antibodies, and then incubated at 4 °C overnight with primary antibodies in blocking solution. […] Neurite outgrowth and BDNF protein levels were assessed by staining the cells with an antibody specific for β-III-tubulin (mouse, 1:500, ThermoFisher), and one for BDNF (rabbit, 1:70, ThermoFisher). […] Mean fluorescence intensity and the relative percentages of immunocytochemically-defined cell types were quantified using the ArrayScan™ XTI High Content Platform (Cellomics) (ThermoFisher) and the ArrayScan algorithm 'Neuronal Profiling V4.1', as previously described. […] Other masks were applied to identify the neurites, their branch points, and the fluorescence intensity levels of SYP and PSD95 puncta, or BDNF protein. […]

A further series can be described thus: Adsorption to plastic. In kind it is in vitro ADME. Here is the method: Since CPF is a lipophilic chemical, its potential adsorption to the plastic wells was evaluated during the kinetic experiments. At the end of each experiment, the content (cells and medium) of each sample well was removed. Wells were washed twice with PBS, to remove possible cellular debris and 3 mL methanol (MeOH) were added. The plate was sealed with Parafilm and kept under gentle shaking at room temperature for 2h, before transferring the complete volume into amber glass vials with screw caps. The fractions were stored at −80 °C until HPLC analysis.

Series [2] deals with CYP and GST gene expression in hiPSC-derived NSCs undergoing differentiation. Briefly: qPCR analysis of CYP and GST gene expression after CPF treatment. In kind it is cell-based, human. The following applies: 21 μM CPF. Here is the method: Analysis of gene expression by qPCR was performed in hiPSC-derived NSCs undergoing differentiation upon single and repeated treatment with 21 μM CPF or solvent control (0.1 % DMSO), collecting samples after 1, 3, 6 and 24 h (as shown in Fig. 2). RNA was isolated using the RNAqueous®-Micro Kit (ThermoFisher) according to manufacturer's instructions, and 500 ng of total RNA was reverse transcribed by using the High Capacity cDNA Reverse Transcription Kit (as directed, ThermoFisher).
qPCR reactions were run in duplicate using TaqMan® Gene Expression Master Mix (ThermoFisher) and the TaqMan gene expression assays shown in Table 1 (all from ThermoFisher).
Fluorescent emission was recorded in real-time using the ABI PRISM Sequence Detection System 7900HT (ThermoFisher). PCR amplification conditions consisted of 45 cycles with primers annealing at 60 °C. Relative RNA quantities were normalized to the reference genes GAPDH and Bactin and untreated cells were used to set calibrating conditions (ΔΔCt Method). Three biological replicates were performed.
(Quantitative PCR measures a nucleic acid by following its amplification.)

For the compound `CCOP(=S)(OCC)Oc1nc(Cl)c(Cl)cc1Cl` [CPF, Chlorpyrifos], the Bound-to-matrigel fraction is 1.7−4.2% in series [1] (first day of treatment) and 5.8−6.5% in series [1] (last day of treatment). In addition, in the series on BDNF protein, the “increase of BDNF protein levels” value was no more than 55%. In addition, the Bound-to-plastic fraction is 0−8.4% in “Adsorption to plastic” (first day of treatment) and 7.5−16.5% in the series “Adsorption to plastic” (last day of treatment). In series [2] (first day of treatment), the CYP-2C9 gene expression entry is “tendency towards upregulation”. Besides, the GST gene expression result in series [2] (first day of treatment) is “did not change”. Further, the CYP-1A1 gene expression result in series [2] (first day of treatment, after 3 h, 6 h and 24 h) was “Up-regulation”. In series [2] (first day, after 6 h treatment), the GST-A4 gene expression result is reported as “modest decrease”. Also, in series [2] (repeated treatment), the CYP gene expression result is “did not significantly change”. Besides, in series [2] (repeated treatment), the “GST gene expression (all analysed GST genes)” value was “significant downregulation”. Moreover, the CYP-2C19 gene expression entry in series [2] (repeated treatment, after 1 h) is reported as “transient upregulation”.
